Target: T1, human GCGR (Homo sapiens, UniProt P47871)
T1 construct: expressed in transfected cells; host or cells: HEK293 (hGluc-1HEK), pcDNA3.1, G418 selection
Experiment: Cellular functional assay, cAMP readout (glucagon-stimulated cAMP, LANCE TR-FRET)
Type: cell-based
Details: HEK293 cells stably expressing full-length human GCGR; glucagon 100 pM; IC50 converted to Ki; read-out: Inhibition of cAMP Ki

T1 sequence (P47871 26-477): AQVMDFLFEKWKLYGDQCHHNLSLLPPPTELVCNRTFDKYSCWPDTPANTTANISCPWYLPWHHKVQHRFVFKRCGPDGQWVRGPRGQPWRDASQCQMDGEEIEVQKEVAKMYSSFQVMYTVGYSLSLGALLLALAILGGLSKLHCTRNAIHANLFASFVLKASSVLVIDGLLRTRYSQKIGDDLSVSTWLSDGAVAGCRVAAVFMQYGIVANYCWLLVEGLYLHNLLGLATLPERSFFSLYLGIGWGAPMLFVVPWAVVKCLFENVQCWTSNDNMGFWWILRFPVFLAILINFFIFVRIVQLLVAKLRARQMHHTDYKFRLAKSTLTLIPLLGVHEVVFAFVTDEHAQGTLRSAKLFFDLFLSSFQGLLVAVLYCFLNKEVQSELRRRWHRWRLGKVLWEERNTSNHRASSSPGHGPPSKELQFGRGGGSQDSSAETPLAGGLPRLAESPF

Compound | Ki
Cc1cc(C(F)(F)F)ccc1-c1ccc2nn(C(CC(C)C)c3ccc(C(=O)NCCC(=O)O)cc3)cc2c1 (stereo not drawn) [Compound #189, 3-(4-(3-Methyl-1-(5-(2-methyl-4-(trifluoromethyl)phenyl)-2H-indazol-2-yl)butyl)benzamido)propanoic acid] | 199 nM
Cc1c(-c2ccc(Cl)cc2Cl)ccc2nn(C(CC(C)C)c3ccc(C(=O)NCCC(=O)O)cc3)cc12 (stereo not drawn) [Compound #190, 3-(4-(1-(5-(2,4-Dichlorophenyl)-4-methyl-2H-indazol-2-yl)-3-methylbutyl)benzamido)propanoic acid] | 25 nM
COc1c(-c2ccc(C(F)(F)F)cc2Cl)ccc2nn([C@H](CC(C)C)c3ccc(C(=O)NCCC(=O)O)cc3)cc12 [Compound #191, 3-[[4-[(1R)-1-[5-[2-Chloro-4-(trifluoromethyl)phenyl]-4-methoxy-indazol-2-yl]-3-methyl-butyl]benzoyl]amino]propanoic acid] | 35 nM
COc1c(-c2ccc(C(F)(F)F)cc2C)ccc2c1cnn2[C@@H](CC(C)C)c1ccc(C(=O)NCCC(=O)O)cc1 [Compound #192, 3-[[4-[(1S)-1-[4-Methoxy-5-[2-methyl-4-(trifluoromethyl)phenyl]indazol-1-yl]-3-methyl-butyl]benzoyl]amino]propanoic acid] | 22 nM
CCOc1c(-c2ccc(C(F)(F)F)cc2C)ccc2c1cnn2C(CC(C)C)c1ccc(C(=O)NCCC(=O)O)nc1 (stereo not drawn) [Compound #197, 3-(5-(1-(4-Ethoxy-5-(2-methyl-4-(trifluoromethyl)phenyl)-1H-indazol-1-yl)-3-methylbutyl)picolinamido)propanoic acid] | 15 nM
Cc1c(-c2ccc(C(F)(F)F)cc2Cl)ccc2c1cnn2C(CC(C)C)c1ccc(C(=O)NCCC(=O)O)nc1 (stereo not drawn) [Compound #198, 3-(5-(1-(5-(2-Chloro-4-(trifluoromethyl)phenyl)-4-methyl-1H-indazol-1-yl)-3-methylbutyl)picolinamido)propanoic acid] | 60 nM
COc1c(-c2ccc(C(F)(F)F)cc2Cl)ccc2c1cnn2[C@@H](CC(C)C)c1ccc(C(=O)NCCC(=O)O)cc1 [Compound #201, 3-[[4-[(1S)-1-[5-[2-Chloro-4-(trifluoromethyl)phenyl]-4-methoxy-indazol-1-yl]-3-methyl-butyl]benzoyl]amino]propanoic acid] | 30 nM
CCOc1c(-c2ccc(C(F)(F)F)cc2Cl)ccc2nn(C(CC(C)C)c3ccc(C(=O)NCCC(=O)O)nc3)cc12 (stereo not drawn) [Compound #205, 3-(5-(1-(5-(2-Chloro-4-(trifluoromethyl)phenyl)-4-ethoxy-2H-indazol-2-yl)-3-methylbutyl)picolinamido)propanoic acid] | 57 nM
CCOc1c(-c2ccc(C(F)(F)F)cc2C)ccc2nn(C(CC(C)C)c3ccc(C(=O)NCCC(=O)O)nc3)cc12 (stereo not drawn) [Compound #207, 3-(5-(1-(4-Ethoxy-5-(2-methyl-4-(trifluoromethyl)phenyl)-2H-indazol-2-yl)-3-methylbutyl)picolinamido)propanoic acid] | 17 nM
COc1c(-c2ccc(C(F)(F)F)cc2C)ccc2c1cnn2C(CC(C)C)c1ccc(C(=O)NCCC(=O)O)nc1 (stereo not drawn) [Compound #213, 3-(5-(1-(4-Methoxy-5-(2-methyl-4-(trifluoromethyl)phenyl)-1H-indazol-1-yl)-3-methylbutyl)picolinamido)propanoic acid] | 75 nM
Cc1cc(C(F)(F)F)ccc1-c1cc2cnn(C(CC(C)C)c3ccc(C(=O)NCCC(=O)O)nc3)c2cc1C (stereo not drawn) [Compound #214, 3-[[5-[3-Methyl-1-[6-methyl-5-[2-methyl-4-(trifluoromethyl)phenyl]indazol-1-yl]butyl]pyridine-2-carbonyl]amino]propanoic acid] | 32 nM
O=C(O)CCNC(=O)c1ccc(C(CCC2CCC2)n2cc3cc(-c4ccc(C(F)(F)F)cc4)ccc3n2)cc1 (stereo not drawn) [Compound #215, 3-(4-(3-Cyclobutyl-1-(5-(4-(trifluoromethyl)phenyl)-2H-indazol-2-yl)propyl)benzamido)propanoic acid] | 210 nM

— patent publication US10000473B2, “Indazole derivatives useful as glucagon receptor antagonists” (Janssen Pharmaceutica NV, priority 2016, dated 2018)
